Series [1] is described as follows: Cytotoxicity against human WI38 cells assessed as reduction in cell viability after 48 hrs by MTT assay. It counts as toxicity, cell-based, WI-38.
Series [2] in a line: Antiproliferative activity against human HepG2 cells after 48 hrs by MTT assay. The class given is functional, cell-based. The following applies: HepG2, 48 h. A general note: Formazan colour is commonly taken as a measure of viable cells.
The nature of series [3]: Antiproliferative activity against human K562 cells after 48 hrs by MTT assay. It counts as functional, cell-based. To be noted: K562, 48 h.
Series [4] relates to K562. Nature of the series: Induction of apoptosis in human K562 cells assessed as increase in caspase-9 protein expression at 1.24 uM after 24 hrs by ELISA. The class given is functional, cell-based. (In general: ELISA stands for enzyme-linked immunosorbent assay.)
The subject of series [5] is K562. Nature of the series: Induction of apoptosis in human K562 cells assessed as increase in caspase-3 protein expression at 1.24 uM after 24 hrs by ELISA. The class given is functional, cell-based.
Series [6] deals with HepG2. Nature of the series: Induction of apoptosis in human HepG2 cells assessed as increase in caspase-9 protein expression at 0.77 uM after 24 hrs by ELISA. It counts as functional, cell-based.
In series [7] the test system is HepG2. Nature of the series: Induction of apoptosis in human HepG2 cells assessed as decrease in Bcl2 mRNA expression at antiproliferative IC50 by RT-PCR method. It counts as functional, cell-based.
Series [8] concerns HepG2. Nature of the series: Induction of apoptosis in human HepG2 cells assessed as increase in caspase-3 protein expression at 0.77 uM after 24 hrs by ELISA. The class given is functional, cell-based.
Series [9] deals with HepG2. Nature of the series: Induction of apoptosis in human HepG2 cells assessed as increase in Bax mRNA expression at antiproliferative IC50 by RT-PCR method. The class given is functional, cell-based.
Series [10] in a line: Cell cycle arrest in human K562 cells assessed as accumulation at G2 phase at 0.49 uM after 24 hrs by propidium iodide staining based flow cytometry (reference value: 9.3%). It counts as functional.
The subject of series [11] is K562. Nature of the series: Induction of apoptosis in human K562 cells assessed as increase in caspase-3 protein expression at 0.49 uM after 24 hrs by ELISA. It counts as functional, cell-based.
Series [12] concerns K562. Nature of the series: Induction of apoptosis in human K562 cells assessed as increase in Bax mRNA expression at antiproliferative IC50 by RT-PCR method. It counts as functional, cell-based.
Series [13] concerns K562. Nature of the series: Induction of apoptosis in human K562 cells at 0.49 uM after 24 hrs by propidium iodide staining based flow cytometry (reference value: 0.8%). The class given is functional. For orientation: A flow cytometer gives signals particle by particle.
Series [14] is described as follows: Cell cycle arrest in human K562 cells assessed as accumulation at G1 phase at 0.49 uM after 24 hrs by propidium iodide staining based flow cytometry (reference value: 68.2%). It counts as functional.
Series [15] is described as follows: Cell cycle arrest in human K562 cells assessed as accumulation at S phase at 0.49 uM after 24 hrs by propidium iodide staining based flow cytometry (reference value: 21.7%). The class given is functional.
Series [16] has as its system K562. Nature of the series: Induction of apoptosis in human K562 cells assessed as decrease in Bcl2 mRNA expression at antiproliferative IC50 by RT-PCR method. The class given is functional, cell-based.
The test system of series [17] is K562. Nature of the series: Induction of apoptosis in human K562 cells assessed as increase in caspase-9 protein expression at 0.49 uM after 24 hrs by ELISA. It counts as functional, cell-based.
For series [18], the system named is HepG2. Nature of the series: Induction of apoptosis in human HepG2 cells at 0.65 uM after 24 hrs by propidium iodide staining based flow cytometry (reference value: 1.2%). It counts as functional.
Series [19] is described as follows: Cell cycle arrest in human HepG2 cells assessed as accumulation at G1 phase at 0.65 uM after 24 hrs by propidium iodide staining based flow cytometry (reference value: 66.4%). It counts as functional.
Series [20] can be described thus: Cell cycle arrest in human HepG2 cells assessed as accumulation at S phase at 0.65 uM after 24 hrs by propidium iodide staining based flow cytometry (reference value: 25.2%). The class given is functional.
The nature of series [21]: Cell cycle arrest in human HepG2 cells assessed as accumulation at G2 phase at 0.65 uM after 24 hrs by propidium iodide staining based flow cytometry (reference value: 7.2%). The class given is functional.
The subject of series [22] is HepG2. Nature of the series: Induction of apoptosis in human HepG2 cells assessed as increase in caspase-9 protein expression at 0.65 uM after 24 hrs by ELISA. It counts as functional, cell-based.
Series [23] relates to HepG2. Nature of the series: Induction of apoptosis in human HepG2 cells assessed as increase in caspase-3 protein expression at 0.65 uM after 24 hrs by ELISA. It counts as functional, cell-based.
Series [24] has as its system K562. Nature of the series: Induction of apoptosis in human K562 cells assessed as increase in caspase-3 protein expression at 0.93 uM after 24 hrs by ELISA. It counts as functional, cell-based.
For series [25], the system named is K562. Nature of the series: Induction of apoptosis in human K562 cells assessed as increase in caspase-9 protein expression at 0.93 uM after 24 hrs by ELISA. The class given is functional, cell-based.
In series [26] the test system is K562. Nature of the series: Induction of apoptosis in human K562 cells assessed as increase in caspase-3 protein expression at 1.21 uM after 24 hrs by ELISA. The class given is functional, cell-based.
Series [27] relates to K562. Nature of the series: Induction of apoptosis in human K562 cells assessed as increase in caspase-9 protein expression at 1.21 uM after 24 hrs by ELISA. It counts as functional, cell-based.

SMILES strings stand for the structures. The source made the active and inactive calls. The calls are words filed in the database; no cut-off is given here.

For the molecule `COc1ccc(/C=C(\C#N)C(=O)N/N=C(\C)c2cc3cccc(OC)c3oc2=O)cc1OC`, the IC50 – broadly, the midpoint of a concentration-inhibition curve – at 48 h in series [1] was found to be 3.3 µM. Also, the IC50 in series [2] came to 930 nM; in [3], 8710 nM.
On the same counts, the results for `CCOC(=O)c1ccc(-c2cc3cccc(OC)c3oc2=O)nc1C` are 67.7 µM, 4920 nM and 8820 nM.
`COc1cccc2cc(-c3ccc(C(C)=O)c(C)n3)c(=O)oc12`: the result in series [4] and in [5] was Active. The IC50 at 48 h in [1] turned out to be 354 µM. The results for the IC50 in series [2] and in [3] were 9100 nM and 1240 nM, respectively.
`COc1ccc(/C=C(\C#N)C(=O)N/N=C(\C)c2cc3cccc(OC)c3oc2=O)cc1`: the result in [6], in [7], in series [8] and in [9] was Active. Further, the IC50 at 48 h in series [1] was 48.4 µM. Further, the IC50 is 770 nM in series [2] and 3960 nM in series [3].
With `COc1ccc(C[C@@H](O)c2cc(OC)c(OC)c(OC)c2)cc1O` [COMBRETASTATIN], the 50% inhibitory concentration (IC50) in [2] stood at 3400 nM; in series [3] it was 3460 nM.
With `COc1cc(/C=C(\C#N)C(=O)N/N=C(\C)c2cc3cccc(OC)c3oc2=O)cc(OC)c1OC`, the Activity in series [10] worked out at 15.5%; in series [13], 9.7%; in [14], 44.6%; in series [15], 30.2%. Besides, the result in series [11], in series [12], in [16] and in series [17] was Active. Further, the IC50 at 48 h in [1] turned out to be 11.1 µM. The 50% inhibitory concentration (IC50) in series [2] stood at 1570 nM; in series [3] it was 490 nM.
On to `COc1cccc2c1C(=O)c1c(O)c3c(c(O)c1C2=O)C[C@@](O)(C(=O)CO)C[C@@H]3O[C@H]1C[C@H](N)[C@H](O)[C@H](C)O1` [DOXORUBICIN], for which the half-inhibitory concentration (IC50) was 4930 nM in series [2] and 2960 nM in series [3].
With `COc1ccc(/C=C/C(=O)c2cc3cccc(OC)c3oc2=O)cc1`, the Activity in [18] amounted to 16.3%; in [19], 35.8%; in series [20], 28.8%; in series [21] it was 19.1%. For the same molecule, the outcome in series [7], in series [9], in [22] and in series [23] was Active. In addition, the IC50 at 48 h in series [1] was found to be 293 µM. The IC50 in [2] is 650 nM; in [3], 1090 nM.
`COc1cc(/C=C/C(=O)c2cc3cccc(OC)c3oc2=O)cc(OC)c1OC`: the IC50 at 48 h in series [1] worked out at 9.55 µM. In addition, the IC50 in series [2] turned out to be 2020 nM; in series [3], 1360 nM.
On to `COc1ccc(/C=C/C(=O)c2cc3cccc(OC)c3oc2=O)cc1OC`, for which the result in [24], in [12], in series [25] and in series [16] was Active. Also, the IC50 at 48 h in [1] worked out at 33.1 µM. Further, the results for the half-inhibitory concentration (IC50) in series [2] and in series [3] were 820 nM and 930 nM, respectively.
As to `COc1ccc(-c2cc(-c3cc4cccc(OC)c4oc3=O)nc(C#N)c2N)cc1OC`, the IC50 at 48 h in series [1] was 36.1 µM. The IC50 in [2] came to 3200 nM; in series [3] it was 1610 nM.
For `COc1ccc(-c2cc(-c3cc4cccc(OC)c4oc3=O)nc(C#N)c2N)cc1`, the result in [26] and in series [27] was Active. The IC50 at 48 h in series [1] is 8.66 µM. The IC50 was 1250 nM in [2] and 1210 nM in series [3].

The values are drawn from ChEMBL document CHEMBL3875211, “Design and synthesis of new coumarin hybrids and insight into their mode of antiproliferative action” (Bioorg Med Chem, 2017).
